The record followed here is patent publication US7700637B2, “Organic compounds” (Novartis AG, priority 2003, dated 2010).

Data set [1] addresses T1, PPARδ receptor (GST-hPPARδ LBD) (Homo sapiens, UniProt Q03181).
T1 construct: GST-hPPARδ LBD (amino acids 139-442); made in house; host or cells: E. coli BL21 (DE3)
T1 sequence (Q03181 139-441 limits assumed): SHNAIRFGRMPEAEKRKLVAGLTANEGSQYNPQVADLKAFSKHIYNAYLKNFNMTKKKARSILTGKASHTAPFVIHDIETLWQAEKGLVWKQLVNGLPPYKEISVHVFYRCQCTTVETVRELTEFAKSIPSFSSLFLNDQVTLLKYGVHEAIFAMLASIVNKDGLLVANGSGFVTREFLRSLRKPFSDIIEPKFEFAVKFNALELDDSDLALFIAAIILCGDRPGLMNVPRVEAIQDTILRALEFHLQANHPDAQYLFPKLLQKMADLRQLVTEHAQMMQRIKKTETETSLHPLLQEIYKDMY
T1 sequence (Q15788 676-700 partner limits assumed): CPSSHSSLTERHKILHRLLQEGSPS
The data set can be described thus: PPARδ receptor functional binding assay (CARLA, TR-FRET). In kind it is biochemical. The note with it: SRC-1 peptide recruitment. The protocol:
(§1) The in vitro functional binding to the PPARα, PPARδ and PPARγ receptors is determined as follows:
(§2) The functional binding assays for the PPARα, PPARδ and PPARγ receptors are a variation of the coactivator-dependent receptor ligand assay (CARLA) (Krey et al., Molecular Endocrinology 1997, 11, 779-791). The present CARLA assays use a TR-FRET detection method previously reviewed (Hemmila, J. Biomol. Screening 1999, 4, 303-307; Mathis, J. Biomol. Screening 1999, 4, 309-313). All assays included 3 nM of the glutathione-S-transferase (GST) fusion proteins of either the hPPARα ligand binding domain (LBD) (amino acids 167-468) (GST-hPPARα LBD), GST-hPPARδ LBD (amino acids 139-442) or GST-hPPARγ LBD (amino acids 175-476); 3 nM Eu-labelled anti-GST antibody (Wallac); 30 nM biotinylated steroid receptor coactivator-1 (SRC-1) peptide (an N-terminal biotinylated peptide, […], derived from amino acids 676-700 of SRC-1); and 10 nM streptavidin-labelled allophycocyanin (APC; Prozyme). […] This brings the Eu-labelled anti-GST antibody and the strepavidin-labelled APC in close proximity, thereby facilitating fluorescence energy transfer. […] After mixing all components, the reaction mixture stands for 3 h at RT before reading the TR-FRET signal on a Wallac Victor 2 plate reader (measuring the ratio of signals at 665 nm and 620 nm). […]

Data set [2] concerns the target T2, PPARα receptor (GST-hPPARα LBD) (Homo sapiens, UniProt Q07869).
T2 construct: made in house; host or cells: E. coli BL21 (DE3)
T2 sequence (Q07869 167-468): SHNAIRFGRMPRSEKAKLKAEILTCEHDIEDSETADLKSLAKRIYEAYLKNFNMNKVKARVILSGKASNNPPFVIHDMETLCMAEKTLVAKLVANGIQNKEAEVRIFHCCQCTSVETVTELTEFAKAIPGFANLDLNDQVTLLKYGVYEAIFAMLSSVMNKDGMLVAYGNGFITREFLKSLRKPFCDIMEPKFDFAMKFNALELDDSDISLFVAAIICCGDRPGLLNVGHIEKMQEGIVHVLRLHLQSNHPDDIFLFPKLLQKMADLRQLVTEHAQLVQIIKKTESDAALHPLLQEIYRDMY
In words: PPARα receptor functional binding assay (CARLA, TR-FRET). In kind it is biochemical. To be noted: SRC-1 peptide recruitment. The procedure:
as §1, §2

Data set [3] deals with T3, PPARγ receptor (GST-hPPARγ LBD) (Homo sapiens, UniProt P37231).
T3 construct: GST-hPPARγ LBD (amino acids 175-476); made in house; host or cells: E. coli BL21 (DE3)
T3 sequence (P37231 175-476 isoform P37231-2): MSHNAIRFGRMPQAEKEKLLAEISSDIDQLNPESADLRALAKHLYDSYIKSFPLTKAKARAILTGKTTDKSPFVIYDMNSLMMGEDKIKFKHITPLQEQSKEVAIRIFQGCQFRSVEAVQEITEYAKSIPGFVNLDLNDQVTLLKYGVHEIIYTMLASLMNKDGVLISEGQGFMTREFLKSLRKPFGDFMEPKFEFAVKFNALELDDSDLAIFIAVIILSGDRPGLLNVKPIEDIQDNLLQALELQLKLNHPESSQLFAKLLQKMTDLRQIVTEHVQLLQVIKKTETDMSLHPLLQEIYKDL
The data set can be described thus: PPARγ receptor functional binding assay (CARLA, TR-FRET). In kind it is biochemical. The note with it: SRC-1 peptide recruitment. The protocol: as §1, §2
A general note: In TR-FRET formats the signal depends on donor and acceptor labels being close together.

The subject of a further data set is C57BL ob/ob mice. In words: glucose and insulin lowering activity in vivo in ob/ob mice. To be noted: daily dose of about 30 mg/kg p.o. in the ob/ob mice. The procedure:
The glucose and insulin lowering activity in vivo can be evaluated as follows:
Adult male C57BL ob/ob mice (Jackson Lab, Bar Harbor, Me.) at the age of 11 weeks are housed six per cage in a reversed light cycle room (light on from 6:00 p.m. to 6:00 a.m.) and given access to Purina rodent chow and water ad libitum. On day 1 tail blood samples are taken at 8:00 am and plasma glucose levels are determined. The animals are randomly assigned to the control and compound groups. The means of plasma glucose values of the groups were matched. Animals are then orally dosed with vehicle (0.5% carboxymethyl-cellulose with 0.2% Tween-80) or compounds (at 30 mg/kg) in vehicle. The mice are dosed daily for a total of 3 days. On day 4 basal blood samples are taken. The plasma samples are analyzed for glucose concentrations using a YS12700 Dual Channel Biochemistry Analyzer (Yellow Springs Instrument Co., Yellow Springs, Ohio) and insulin concentrations using an ELISA assay.

For orientation: melting point means the temperature, or range, at which the solid turns liquid. In turn, `Cc1oc(-c2ccccc2)nc1COCc1ccc(COc2cc(Cl)ccc2C(=O)O)cc1` [Compd 21-19, 4-Chloro-2-[4-(5-methyl-2-phenyl-oxazol-4-ylmethoxymethyl)-benzyloxy]-benzoic acid] registered a melting point of 151 °C.
In general, EC50 refers to the concentration giving half of the maximal effect. Low readings indicate greater potency, high ones weaker potency. In turn, `Cc1cccc(NS(=O)(=O)c2ccc(OCc3nc(-c4ccccc4)oc3C)cc2)c1C(=O)O` [Example 1, 2-Methyl-6-[4-(5-methyl-2-phenyl-oxazol-4-ylmethoxy)-benzenesulfonylamino]-benzoic acid] displayed a melting point of 167 to 170 °C. This molecule also came in with an EC50 in data set [1] of approximately 3500 nM. For the same molecule, the EC50 in data set [2] was approximately 8 nM. Moreover, the EC50 in data set [3] is approximately 5 nM. In addition, in the data set on C57BL ob/ob mice, the serum glucose levels result is reported as “significantly lowers” and the serum insulin levels entry is “significantly lowers”.
In turn, `Cc1oc(-c2ccccc2)nc1CCOc1ccc(S(=O)(=O)Nc2cc(Cl)ccc2C(=O)O)cc1` [Example 2, 4-Chloro-2-{4-[2-(5-methyl-2-phenyl-oxazol-4-yl)-ethoxy]-benzenesulfonylamino}-benzoic acid] yielded a melting point of 223 to 225 °C.
On the same count and under the same terms, in the case of `Cc1oc(-c2ccccc2)nc1CSc1ccc(S(=O)(=O)Nc2ccccc2C(=O)O)cc1` [Example 3, 2-[4-(5-Methyl-2-phenyl-oxazol-4-ylmethylsulfanyl)-benzenesulfonylamino]-benzoic acid] it was 182 to 184 °C.
Still for that read-out and setting: in the case of `O=C(NCCc1ccc(F)cc1)c1ccc(S(=O)(=O)Nc2ccccc2C(=O)O)cc1` [Example 7, 2-{4-[2-(4-Fluoro-phenyl)-ethylcarbamoyl]-benzenesulfonylamino}-benzoic acid] it was 85 to 86 °C; in that of `CCOc1ccc(CC(=O)Nc2ccc(S(=O)(=O)Nc3ccccc3C(=O)O)cc2)cc1` [Example 9, 2-{4-[2-(4-Ethoxy-phenyl)-acetylamino]-benzenesulfonylamino}-benzoic acid], 241 to 242 °C; in that of `COc1ccc(C(=O)O)c(OCc2ccc(OCCc3nc(-c4ccccc4)oc3C)cc2)c1` [Example 11, 4-Methoxy-2-{4-[2-(5-methyl-2-phenyl-oxazol-4-yl)-ethoxy]-benzyloxy}-benzoic acid], 113 to 115 °C.
The same measure, in the same setting: in the case of `Cc1oc(-c2ccccc2)nc1CCOc1ccc(COc2cc3ccccc3cc2C(=O)O)cc1` [Example 14, 3-{4-[2-(5-Methyl-2-phenyl-oxazol-4-yl)-ethoxy]-benzyloxy}-naphthalene-2-carboxylic acid] it was 135 to 137 °C; in that of `CCCOc1ccc(C(=O)O)c(OCc2ccc(OCCc3nc(-c4ccccc4)oc3C)cc2)c1` [Example 15, 2-{4-[2-(5-Methyl-2-phenyl-oxazol-4-yl)-ethoxy]-benzyloxy}-4-propoxy-benzoic acid], 108 to 109 °C.
Molecule `Cc1oc(-c2ccccc2)nc1COc1cccc(COc2cc(Cl)ccc2C(=O)O)c1` [Example 17, 4-Chloro-2-[3-(5-methyl-2-phenyl-oxazol-4-ylmethoxy)-benzyloxy]-benzoic acid] registered a melting point of 168 °C.
`Cc1oc(-c2ccccc2)nc1COCc1cccc(COc2cc(Cl)ccc2C(=O)O)c1` [Example 18, 4-Chloro-2-[3-(5-methyl-2-phenyl-oxazol-4-ylmethoxymethyl)-benzyloxy]-benzoic acid] returned a melting point of 137 °C.
